According to patent publication US20070197532A1, “GLUCOKINASE ACTIVATORS” (priority 2005, published 2007):

What follows are molecules tested against T1, glucokinase (GK) (Homo sapiens, UniProt P35557) (assay: enzymatic glucokinase activity assay (ATP consumption, KinaseGlo luminescence)). Conditions: recombinant GK; 5 μM ATP, 5 mM Glucose, 2% DMSO, 60 min at room temperature; Kact = concentration giving 50% of the maximal increase in GK activity; read-out: pKact.
T1 construct: I.D. No. 1 corresponds to residues 13-466 of glucokinase; made in house; host or cells: E. coli DH10b-T1r
T1 sequence (P35557 with tags, fused parts or gaps isoform P35557-2): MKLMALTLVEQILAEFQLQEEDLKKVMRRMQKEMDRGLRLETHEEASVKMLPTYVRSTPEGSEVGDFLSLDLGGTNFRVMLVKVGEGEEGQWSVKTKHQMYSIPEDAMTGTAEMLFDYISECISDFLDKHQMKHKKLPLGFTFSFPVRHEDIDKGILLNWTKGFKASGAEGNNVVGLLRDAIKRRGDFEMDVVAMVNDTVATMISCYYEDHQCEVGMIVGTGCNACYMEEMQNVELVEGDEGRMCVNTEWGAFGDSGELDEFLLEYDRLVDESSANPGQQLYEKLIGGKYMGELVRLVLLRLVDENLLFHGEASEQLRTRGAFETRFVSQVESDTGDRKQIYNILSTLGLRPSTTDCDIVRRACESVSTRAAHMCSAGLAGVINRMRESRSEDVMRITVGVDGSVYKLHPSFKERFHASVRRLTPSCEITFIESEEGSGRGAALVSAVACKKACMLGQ
Type: biochemical
Excerpt: The activity of compounds as glucokinase activators may be assayed in vitro, in vivo or in a cell line. Provided below is an enzymatic glucokinase activity assay.
Purified glucokinase may be obtained as follows. DNA encoding residues 12-465 of the full-length sequence of the human enzyme may be amplified by PCR and cloned into the HindIII and EcoRI sites of pFLAG-CTC (Sigma). SEQ. I.D. No. 1 corresponds to residues 13-466 of glucokinase.
The expression of recombinant glucokinase protein may be carried out by transformation and growth of DH10b-T1r E. coli cells incorporating the (pFLAG-CTC) plasmid in LB media. Protein expression can be induced in this system by the addition of IPTG to the culture medium.
Recombinant protein may be isolated from cellular extracts by passage over Sepharose Q Fast Flow resin (Pharmacia). This partially purified GK extract may then be further purified by a second passage over Poros HQ10 (Applied Biosystems). The purity of GK may be determined on denaturing SDS-PAGE gel. Purified GK may then be concentrated to a final concentration of 20.0 mg/ml. After flash freezing in liquid nitrogen, the proteins can be stored at −78° C. in a buffer containing 25 mM TRIS-HCl pH 7.6, 50 mM NaCl, and 0.5 mM TCEP.
The activation properties of compounds for GK may be determined using a black 384-well-plate format under the following reaction conditions: 25 mM Hepes pH 7.2, 25 mM NaCl, 10 mM MgCl2, 0.01% Brij35, 1 mM DTT, 5 μM ATP, 5 mM Glucose 2% DMSO. The amount of ATP consumed may be determined quantitatively by addition of equal volume of luciferase reagent (luciferase+beetle luciferin—KinaseGlo Luminescent Kinase Assay kit from Promega). The luminescence intensity may be measured by using the Analyst HT from LJL Biosystems.
The assay reaction may be initiated as follows: 4 μl of substrate mixture (12.5 μM ATP and 12.5 mM Glucose) was added to each well of the plate, followed by the addition of 2 μl of activator (2 fold serial dilutions for 11 data points for each activator) containing 10% DMSO. 4 μL of 1.25 nM GK solution may be added to initiate the reaction. The reaction mixture may then be incubated at room temperature for 60 min, and quenched and developed by addition of 10 μL of luciferase reagent. Luminescence intensities of the resulting reaction mixtures may be measured after a 10 min incubation at room temperature. The luminescence intensity may be measured by using the Analyst HT from LJL Biosystems.
pKact and % ACTmax values may be calculated by non-linear curve fitting of the compound concentrations and luminescence intensities to a standard inhibition/activation equation.

SMILES | EC50
COc1ccccc1-c1nnc(SCC(=O)Nc2ccc(C)c(C)c2)[nH]1 | ≤ 2 µM
Fc1ccccc1CSc1n[nH]c(-c2ccccc2OCc2ccccc2)n1 | ≤ 2 µM
COc1ccccc1-c1cc(-c2cccc(C#N)c2)n[nH]1 | 2.51 to 3.98 µM
COc1cc(OCc2ccccc2)ccc1-c1cc(-c2ccc(F)cc2)n[nH]1 | ≤ 2 µM
Cn1ccnc1COc1ccccc1-c1cc(-c2ccc(F)cc2)n[nH]1 | ≤ 2 µM
c1ccc(-c2cc(-c3cccc4c3OCC4)[nH]n2)cc1 | 2.51 to 3.98 µM
COc1ccccc1-c1cc(-c2cccc(NC(C)=O)c2)n[nH]1 | ≥ 5.01 µM
COc1ccccc1-c1nc(SCC(=O)c2ccc(O)c(O)c2)n[nH]1 | 2.51 to 3.98 µM
COc1ccccc1-c1nc(SCc2ccccc2F)n[nH]1 | 2.51 to 3.98 µM
FC(F)(F)COc1ccc(OCC(F)(F)F)c(-c2ccn[nH]2)c1 | ≤ 2 µM
COc1ccccc1-c1nc(SCC(=O)N2CCOCC2)n[nH]1 | ≤ 2 µM
COc1ccccc1-c1nnc(SCC(=O)Nc2ccccc2[N+](=O)[O-])[nH]1 | ≤ 2 µM
COc1ccccc1-c1cc(OCc2ccccc2F)n[nH]1 | ≥ 5.01 µM
COc1ccccc1-c1cc(-c2ccccc2)n[nH]1 | 2.51 to 3.98 µM
Fc1ccccc1COc1cc(-c2cccc3c2OCC3)[nH]n1 | ≥ 5.01 µM
COc1ccccc1-c1cc(-c2ccc(C#N)cc2)n[nH]1 | 2.51 to 3.98 µM
c1ccc(-c2cc(-c3ccccc3OCc3ccccn3)[nH]n2)cc1 | 2.51 to 3.98 µM
COc1ccc(F)cc1-c1cc(OCc2ccccc2F)n[nH]1 | ≥ 5.01 µM
COc1ccccc1-c1cc(-c2cccc(F)c2)[nH]n1 | ≥ 5.01 µM
COc1ccc(F)cc1-c1cc(-c2cccc(F)c2)[nH]n1 | 2.51 to 3.98 µM
Fc1ccc(-c2cc(-c3ccccc3Oc3ccccc3)[nH]n2)cc1 | 2.51 to 3.98 µM

SMILES | EC50
COc1ccccc1-c1cc(-c2ccc(F)cc2)n[nH]1 | 2.51 to 3.98 µM
Fc1ccc(-c2cc(-c3cccc(Oc4ncccn4)c3)[nH]n2)cc1 | ≥ 5.01 µM
Fc1ccc(-c2cc(-c3cccc(Oc4ccccc4)c3)[nH]n2)cc1 | ≤ 2 µM
CC1(C)Cc2cccc(-c3cc(-c4ccccc4)n[nH]3)c2O1 | ≤ 2 µM
Brc1cc2c(c(-c3cc(-c4ccccc4)n[nH]3)c1)OCC2 | ≥ 5.01 µM
COc1ccccc1-c1cc(-c2cccc(N)c2)n[nH]1 | 2.51 to 3.98 µM
COCCOc1cc(OCc2ccccc2)ccc1-c1cc(-c2ccccc2)n[nH]1 | ≤ 2 µM
COc1ccccc1-c1cc(-c2ccc(N3CCOCC3)nc2)n[nH]1 | ≥ 5.01 µM
c1ccc(COc2ccc(-c3cc(-c4ccccc4)n[nH]3)c(OCc3ccccn3)c2)cc1 | ≤ 2 µM
COc1ccccc1-c1cc(-c2cccc(NC(=O)c3ccccc3)c2)n[nH]1 | 2.51 to 3.98 µM
COc1ccccc1-c1cc(-c2ccc(N(C)C)nc2)n[nH]1 | 2.51 to 3.98 µM
c1ccc(-c2cc(-c3ccccc3Oc3cccnc3)[nH]n2)cc1 | 2.51 to 3.98 µM
COc1cc([N+](=O)[O-])ccc1-c1cc(-c2ccccc2)n[nH]1 | ≤ 2 µM
COc1ccccc1-c1cc(-c2ccc(N)cc2)n[nH]1 | ≥ 5.01 µM
COc1ccc(COc2ccc(-c3cc(-c4ccccc4)n[nH]3)c(OC)c2)cc1 | 2.51 to 3.98 µM
COc1cc(NC(=O)c2ccccc2)ccc1-c1cc(-c2ccccc2)n[nH]1 | ≤ 2 µM
COc1ccc(CNc2ccc(-c3cc(-c4ccccc4OC)[nH]n3)cn2)c(OC)c1 | ≤ 2 µM
COc1ccccc1-c1cc(-c2ccccc2Cl)n[nH]1 | 2.51 to 3.98 µM
COCCNc1ccc(-c2cc(-c3ccccc3OC)[nH]n2)cn1 | 2.51 to 3.98 µM
Clc1cccc(Oc2ccccc2-c2cc(-c3cccnc3)n[nH]2)c1 | 2.51 to 3.98 µM
COc1ccc(NCc2ccccc2)cc1-c1cc(-c2ccccc2)n[nH]1 | ≥ 5.01 µM

SMILES | EC50
COc1cc(NCc2ccccc2)ccc1-c1cc(-c2ccccc2)n[nH]1 | 2.51 to 3.98 µM
COc1ccc(NC(=O)c2ccccc2)cc1-c1cc(-c2ccccc2)n[nH]1 | 2.51 to 3.98 µM
COc1ccc(NS(=O)(=O)c2ccccc2)cc1-c1cc(-c2ccccc2)n[nH]1 | 2.51 to 3.98 µM
COc1ccc(NC(=O)Cc2ccccc2)cc1-c1cc(-c2ccccc2)n[nH]1 | ≤ 2 µM
COc1ccc(NC(=O)c2cncs2)cc1-c1cc(-c2ccccc2)n[nH]1 | ≥ 5.01 µM
COc1ccc(NC(=O)c2ccoc2)cc1-c1cc(-c2ccccc2)n[nH]1 | 2.51 to 3.98 µM
COC[C@H](C)Oc1cc(OCc2ccccc2F)cc(-c2cc(OC)n[nH]2)c1 | ≥ 5.01 µM
COC[C@H](C)Oc1cc(OCc2ccc(S(C)(=O)=O)cc2)cc(-c2cc(OC)n[nH]2)c1 | 2.51 to 3.98 µM
COC[C@H](C)Oc1cc(OCCc2ccsc2)cc(-c2cc(OC)n[nH]2)c1 | ≤ 2 µM
COc1cc(-c2ccc3ncn(CC4CCCCC4)c3c2)[nH]n1 | ≥ 5.01 µM
CS(=O)(=O)c1ccc(Oc2cc(OCc3ccccc3F)cc(-c3cc(O)n[nH]3)c2)cc1 | ≥ 5.01 µM
COc1cc(-c2cc(OCc3ccccc3F)cc(Oc3ccc(S(C)(=O)=O)cc3)c2)[nH]n1 | ≤ 2 µM
COC[C@H](C)Oc1cc(Oc2ccc(S(C)(=O)=O)cc2)cc(-c2cc(OC)n[nH]2)c1 | ≤ 2 µM
COC[C@H](C)Oc1cc(Oc2ccc(S(C)(=O)=O)cc2)cc(-c2cc(OCC(=O)OC)n[nH]2)c1 | 2.51 to 3.98 µM
Cc1cccnc1COc1cc(Oc2ccc(S(C)(=O)=O)cc2)cc(-c2cc(O)n[nH]2)c1 | ≥ 5.01 µM
COc1cc(-c2cc(OCc3ncccc3C)cc(Oc3ccc(S(C)(=O)=O)cc3)c2)[nH]n1 | ≤ 2 µM
COc1cc(-c2cc(Oc3ccc(S(C)(=O)=O)cc3)cc(OC3CCCC3)c2)[nH]n1 | ≤ 2 µM
Cc1ccccc1COc1cc(Oc2ccc(S(C)(=O)=O)cc2)cc(-c2cc(O)n[nH]2)c1 | ≥ 5.01 µM
COc1cc(-c2cc(OCc3ccccc3C)cc(Oc3ccc(S(C)(=O)=O)cc3)c2)[nH]n1 | ≤ 2 µM
